# Test results from US20250154138A1, “Small Molecule IL-17A Modulators” (BeiGene, Ltd., priority 2022, published 2025).
# Experiments:
# [1] = target: human IL-17A / human IL-17RA (Homo sapiens (Human), UniProt Q16552); assay: Human IL-17A biochemical assay (HTRF, blocking of IL-17A binding to IL-17RA); details: 0.4 nM IL-17A, 0.3 nM IL-17RA, max compound concentration 10 uM
# Outline: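 Inhibition of IL-17A binding to IL-17RA is measured by HTRF using 0.4 nM IL-17A, 0.3 nM IL-17RA and a 3 h compound pre-incubation at room temperature, pH 7.5. IC50 values come from four-parameter logistic fitting.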
# [2] = tested on: IL-17-induced GROα secretion from HT-29 cells; assay: GROα release assay in human colorectal adenocarcinoma epithelial cell (HT-29, ELISA); format: cell-based; details: Homo sapiens, HT-29, 48 h, 10 ng/mL IL-17A, highest concentration 10 μM, read-out: Cellular assay HT29 cell/CXCL1 IC50
# Protocol: The purpose of the assay is to test the ability of a compound to neutralize IL17A proteins. IL17 can stimulate human epithelial cells to secrete GROα. The ability of one compound of the invention to neutralize IL-17-induced GROα secretion from the human colorectal adenocarcinoma epithelia cell line HT-29 is tested in this assay.
# HT-29 cells (human colorectal adenocarcinoma epithelia cell, ATCC) were stimulated with IL-17A (Novoprotein, #C774) in final concentration of 10 ng/mL. The resultant GROα response was measured using an ELISA kit from Invitrogen (#88-52122). HT-29 cells were cultured in complete medium (McCoy's 5A medium+10% FBS) and maintained in a tissue culture flask using standard techniques. On day 1, detached the cell by using TrypLE (Gibco, #12605036) and used the complete medium to neutralize. The cells were centrifuged at 11,00 rmp for 4 minutes. Re-suspended the cell pellet in complete medium and seeded 50,000 HT-29 cells into the 96-well assay plate (Corning, 3599) at 135 μL complete medium per well. The cells were incubated for overnight, at 37° C./5% CO2 to adherent the plate. On day 2, prepared a 4-fold serial dilution of the tested compound in DMSO. The highest concentration of the compound was 10 μM. Transferred 2 μL of the serial diluted compound from the serial dilution plate into the reagent plate which was contained 198 μL complete medium with 100 ng/mL IL-17A per well. The compounds were incubated with the IL-17A for 15 minutes. 15 μL mixtures from reagent plate were transferred into the cell assay plate. Incubated the plate at 37° C./5% CO2 for 48 hours. After the incubation, on day 4, GROα level were measured with GROα ELISA as the manufacturer's instructions. 50 μL supernatant was collected form the assay plate to ELISA plate. ELISA plate was read at 450 nm on a microplate reader and compared to a standard calibration curve.
# Data were processed using GraphPad Prism. GROα concentration was calculated from the standard curve. IC50 was determined using the equation log concentration (inhibitor) against response and fitted to four parameters.
# human IL-17A / human IL-17RA, sequence (Q16552 24-155): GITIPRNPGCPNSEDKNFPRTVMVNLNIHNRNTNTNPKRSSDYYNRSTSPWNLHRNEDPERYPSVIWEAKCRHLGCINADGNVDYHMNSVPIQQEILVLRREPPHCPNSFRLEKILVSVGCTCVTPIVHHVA
Structure (SMILES),IC50 [1],IC50 [2]
"COCC1(N2CC(C)NC2=O)Cc2ccc(NC(=O)[C@@H](NC(=O)c3ccnn3C)C3CCCCC3)cc2C1 (stereo partly drawn) [Example 2, N-((1S)-1-cyclohexyl-2-((2-(methoxymethyl)-2-(4-methyl-2-oxoimidazolidin-1-yl)-2,3-dihydro-1H-inden-5-yl)amino)-2-oxoethyl)-1-methyl-1H-pyrazole-5-carboxamide]",1100 nM,2560 nM
"CC1CN(C2Cc3ccc(NC(=O)[C@@H](NC(=O)c4ccnn4C)C4CCCCC4)cc3C2)C(=O)N1 (stereo partly drawn) [Example 3, N-((1S)-1-cyclohexyl-2-((2-(4-methyl-2-oxoimidazolidin-1-yl)-2,3-dihydro-1H-inden-5-yl)amino)-2-oxoethyl)-1-methyl-1H-pyrazole-5-carboxamide]",3190 nM,8430 nM
"CNC(=O)C1(N2CC(C)NC2=O)Cc2cc3nc([C@@H](NC(=O)c4ccnn4C)C4CCCCC4)[nH]c3cc2C1 (stereo partly drawn) [Example 5, 2-((S)-cyclohexyl(1-methyl-1H-pyrazole-5-carboxamido)methyl)-N-methyl-6-(4-methyl-2-oxoimidazolidin-1-yl)-1,5,6,7-tetrahydroindeno[5,6-d]imidazole-6-carboxamide]",410 nM,353 nM
"CNC(=O)C1(N2CC(C)NC2=O)Cc2cc(NC(=O)[C@@H](NC(=O)c3ccnn3C)C3CCCCC3)sc2C1 (stereo partly drawn) [Example 9, N-((1S)-1-cyclohexyl-2-((5-(4-methyl-2-oxoimidazolidin-1-yl)-5-(methylcarbamoyl)-5,6-dihydro-4H-cyclopenta[b]thiophen-2-yl)amino)-2-oxoethyl)-1-methyl-1H-pyrazole-5-carboxamide]",8000 nM,> 10000 nM
"CC1CN(Cc2cc3cc(NC(=O)[C@@H](NC(=O)c4ccnn4C)C4CCCCC4)ccc3o2)C(=O)N1 (stereo partly drawn) [Example 11, N-((1S)-1-cyclohexyl-2-((2-((4-methyl-2-oxoimidazolidin-1-yl)methyl)benzofuran-5-yl)amino)-2-oxoethyl)-1-methyl-1H-pyrazole-5-carboxamide]",1700 nM,6520 nM
"CC1CN(Cc2cc3cc(NC(=O)[C@@H](NC(=O)c4ccnn4C)C4CCCCC4)ccc3[nH]2)C(=O)N1 (stereo partly drawn) [Example 12, N-((1S)-1-cyclohexyl-2-((2-((4-methyl-2-oxoimidazolidin-1-yl)methyl)-1H-indol-5-yl)amino)-2-oxoethyl)-1-methyl-1H-pyrazole-5-carboxamide]",13000 nM,> 10000 nM
"CNC(=O)C1(N2CCNC2=O)Cc2ccc(NC(=O)[C@@H](NC(=O)c3ccnn3C)C3CCCCC3)cc2C1 (stereo partly drawn) [Example 13, N-((1S)-1-cyclohexyl-2-((2-(methylcarbamoyl)-2-(2-oxoimidazolidin-1-yl)-2,3-dihydro-1H-inden-5-yl)amino)-2-oxoethyl)-1-methyl-1H-pyrazole-5-carboxamide]",1800 nM,1500 nM
"CNC(=O)C1(N2CC(C)NC2=O)Cc2cc3nc([C@@H](NC(=O)c4nonc4C)C4CCCCC4)[nH]c3cc2C1 (stereo partly drawn) [Example 14, N-((1S)-cyclohexyl(6-(4-methyl-2-oxoimidazolidin-1-yl)-6-(methylcarbamoyl)-1,5,6,7-tetrahydroindeno[5,6-d]imidazol-2-yl)methyl)-4-methyl-1,2,5-oxadiazole-3-carboxamide]",150 nM,300 nM
"CC1CN(C2(C(N)=O)Cc3ccc(NC(=O)[C@@H](NC(=O)c4ccnn4C)C4CCCCC4)cc3C2)C(=O)N1 (stereo partly drawn) [Example 15, N-((1S)-2-((2-carbamoyl-2-(4-methyl-2-oxoimidazolidin-1-yl)-2,3-dihydro-1H-inden-5-yl)amino)-1-cyclohexyl-2-oxoethyl)-1-methyl-1H-pyrazole-5-carboxamide]",550 nM,1240 nM
"CNC(=O)C1(N2C(=O)NCC2C)Cc2ccc(NC(=O)[C@@H](NC(=O)c3ccnn3C)C3CCCCC3)cc2C1 (stereo partly drawn) [Example 17, N-((1S)-1-cyclohexyl-2-((2-(5-methyl-2-oxoimidazolidin-1-yl)-2-(methylcarbamoyl)-2,3-dihydro-1H-inden-5-yl)amino)-2-oxoethyl)-1-methyl-1H-pyrazole-5-carboxamide]",2500 nM,2640 nM
"CC[C@H]1CN(C2(C(=O)NC)Cc3ccc(NC(=O)[C@@H](NC(=O)c4ccnn4C)C4CCCCC4)cc3C2)C(=O)N1 (stereo partly drawn) [Example 18, N-((1S)-1-cyclohexyl-2-((2-((S)-4-ethyl-2-oxoimidazolidin-1-yl)-2-(methylcarbamoyl)-2,3-dihydro-1H-inden-5-yl)amino)-2-oxoethyl)-1-methyl-1H-pyrazole-5-carboxamide]",1000 nM,2550 nM
"CC[C@@H]1CN(C2(C(=O)NC)Cc3ccc(NC(=O)[C@@H](NC(=O)c4ccnn4C)C4CCCCC4)cc3C2)C(=O)N1 (stereo partly drawn) [Example 19, N-((1S)-1-cyclohexyl-2-((2-((R)-4-ethyl-2-oxoimidazolidin-1-yl)-2-(methylcarbamoyl)-2,3-dihydro-1H-inden-5-yl)amino)-2-oxoethyl)-1-methyl-1H-pyrazole-5-carboxamide]",60 nM,262 nM
"CNC(=O)C1(N2CC(C)(C)NC2=O)Cc2ccc(NC(=O)[C@@H](NC(=O)c3ccnn3C)C3CCCCC3)cc2C1 (stereo partly drawn) [Example 20, N-((1S)-1-cyclohexyl-2-((2-(4,4-dimethyl-2-oxoimidazolidin-1-yl)-2-(methylcarbamoyl)-2,3-dihydro-1H-inden-5-yl)amino)-2-oxoethyl)-1-methyl-1H-pyrazole-5-carboxamide]",980 nM,476 nM
"CC1CN(C2(CO)Cc3ccc(NC(=O)[C@@H](NC(=O)c4ccnn4C)C4CCCCC4)cc3C2)C(=O)N1 (stereo partly drawn) [Example 22, N-((1S)-1-cyclohexyl-2-((2-(hydroxymethyl)-2-(4-methyl-2-oxoimidazolidin-1-yl)-2,3-dihydro-1H-inden-5-yl)amino)-2-oxoethyl)-1-methyl-1H-pyrazole-5-carboxamide]",950 nM,7120 nM
"CC1CN(C2(C(=O)O)Cc3ccc(NC(=O)[C@@H](NC(=O)c4ccnn4C)C4CCCCC4)cc3C2)C(=O)N1 (stereo partly drawn) [Example 23, 5-((S)-2-cyclohexyl-2-(1-methyl-1H-pyrazole-5-carboxamido)acetamido)-2-(4-methyl-2-oxoimidazolidin-1-yl)-2,3-dihydro-1H-indene-2-carboxylic acid]",640 nM,3660 nM
"CCCC1CN(C2(C(=O)NC)Cc3ccc(NC(=O)[C@@H](NC(=O)c4ccnn4C)C4CCCCC4)cc3C2)C(=O)N1 (stereo partly drawn) [Example 26, N-((1S)-1-cyclohexyl-2-((2-(methylcarbamoyl)-2-(2-oxo-4-propylimidazolidin-1-yl)-2,3-dihydro-1H-inden-5-yl)amino)-2-oxoethyl)-1-methyl-1H-pyrazole-5-carboxamide]",360 nM,1080 nM
"CNC(=O)C1(N2CC(C3CCC3)NC2=O)Cc2ccc(NC(=O)[C@@H](NC(=O)c3ccnn3C)C3CCCCC3)cc2C1 (stereo partly drawn) [Example 27, N-((1S)-2-((2-(4-cyclobutyl-2-oxoimidazolidin-1-yl)-2-(methylcarbamoyl)-2,3-dihydro-1H-inden-5-yl)amino)-1-cyclohexyl-2-oxoethyl)-1-methyl-1H-pyrazole-5-carboxamide]",160 nM,982 nM
